# Data reported in article PMC8951040, “Determination of Flavonoids in Selected Scleranthus Species and Their Anti-Collagenase and Antioxidant Potential” (Molecules, 2022).
# Several values for one entry are separate records, joined by “and”; a condition that tells them apart may be missing. Equal values may be shown once.
# Tests used:
# [1] = DPPH radical scavenging assay; details: 30 min incubation, absorbance 517 nm; mean ± SD, triplicate
# Description: Individual test compounds and extracts in methanol (130 µL) were added to 70 µL of a solution of DPPH (2,2-diphenyl-1-picrylhydrazyl). After 30 min of incubation, the absorbance was evaluated at 517 nm. The determination was performed in triplicate and corrected to a blank sample (pure methanol). The radical scavenging activity of the tested samples was expressed as Trolox equivalents, calculated from the standard curve.
# [2] = ABTS radical cation assay (antioxidant assay kit CS0790); details: 5 min incubation, absorbance 405 nm; mean ± SD, triplicate
# Description: Suppression of the production of the radical cation was measured using an antioxidant assay kit (CS0790). In brief, 10 µL of the test sample, 20 µL of myoglobin working solution, and 150 µL of ABTS working solution (containing ABTS substrate solution and 3% hydrogen peroxide) were mixed into a clear, flat-bottom 96-well plate. After 5 min of incubation, 100 µL of stop solution was added and absorbance was measured at 405 nm. The antioxidant concentration of tested samples was calculated using the equation obtained through linear regression of the Trolox standard curve.
# [3] = FRAP ferric reducing antioxidant power assay kit; details: 1 h at 37 °C, absorbance 594 nm; mean ± SD, triplicate
# Description: The […] of the investigated substances toward ferrous ions was assessed using a ferric reducing antioxidant power assay kit. Briefly, 10 µL of each sample (SP1–SP6, SA1–SA6, 1–9) was mixed with 190 µL of supplied reaction mix (containing FRAP Assay Buffer, FeCl3 solution, and FRAP Probe). After 1 h of incubation at 37 °C, the absorbance was measured at 594 nm. A blank solution containing 10 µL of MeOH instead of extract/compound solution was used. For further calculations, the ferrous standard curve was evaluated. Values are given as mM Ferrous equivalents. All tests were performed in triplicate.
# [4] = CUPRAC assay (antioxidant assay kit MAK334); details: 10 min incubation, absorbance 570 nm; mean ± SD, triplicate
# Description: The reducing power of copper ions was evaluated using an antioxidant assay kit (MAK334). Briefly, 20 µL of sample and 100 µL of reaction mix were added into separate wells in a 96-well plate. After 10 min of incubation, the absorbance endpoint was measured at 570 nm. Total antioxidant capacity was determined using a standard curve evaluated for Trolox.
# [5] = target: collagenase from Clostridium histolyticum; assay: Anti-collagenase assay (FALGPA substrate); format: biochemical; details: 20 min at 37 °C, absorbance 335 nm, mean ± SD, triplicate
# Description: The potential anti-collagenase activity was assessed as previously described. In short, a solution including 25 µL of collagenase from Clostridium histolyticum, 25 µL of Tricine buffer, and 25 µL of various levels of the extracts (SP1–SP6, SA1–SA6) or compounds (6–9) were incubated at 37 °C. After 20 min, 75 µL of FALGPA was added. Then, absorbance was measured at 335 nm. The experiment was performed in 50 mM Tris buffer. The blank was evaluated using Tricine buffer, instead of sample, and the positive control was epigallocatechin gallate (EGCG). All measurements were conducted in triplicate and the IC50 for each sample was calculated. The percentage of collagenase inhibitory activity (CoInh) was calculated as follows:Enzyme inhibition activity (%) = [1 − (B/S)] × 100%, where B is the blank and S is the sample.
Compound,"DPPH (radical scavenging activity, Trolox equivalents) [1]","ABTS (radical scavenging activity, Trolox equivalents) [2]",FRAP (Fe2+ equivalents) [3],CUPRAC (Trolox equivalents) [4],IC50 [5],melting point
"COc1cc(-c2cc(=O)c3c(O)c(C4OC(CO)C(O)C(O)C4O)c(O)c(C4OCC(O)C(O)C4O)c3o2)ccc1O [Compound 9, 5,7,4′-trihydroxy-3′-methoxyflavone-6-C-β-D-glucopyranoside-8-C-α-arabinopyranoside]",407.05 ± 1.83 µM Teq,586.69 ± 2.91 µM Teq,9.07 ± 0.45 mM Fe2+ equivalents,18.20 ± 0.76 µM Teq,71.1 ± 0.97 µM,
"COc1cc(-c2cc(=O)c3c(O)cc(O)c(C4OCC(O)C(O)C4OC4OC(CO)C(OC(C)=O)C(O)C4O)c3o2)ccc1OC(C)=O [Compound 6, 5,7-dihydroxy-3′-methoxy-4′-acetoxyflavone-8-C-β-D-arabinopyranoside-2″-O-(4‴-acetoxy)-glucoside]",6.69 ± 0.97 µM Teq,169.27 ± 1.68 µM Teq,,18.57 µM Teq and 18.57 ± 0.76 µM Teq,39.6 ± 1.21 µM,187 to 188 °C
"O=C(O[C@@H]1Cc2c(O)cc(O)cc2O[C@@H]1c1cc(O)c(O)c(O)c1)c1cc(O)c(O)c(O)c1 [EGCG, epigallocatechin gallate, reference compound]",,,,,34.8 ± 0.53 µM,
"O=c1cc(-c2cccc(O)c2)oc2c(C3OC(CO)C(O)C(O)C3O)c(O)c(C3OC(CO)C(O)C(O)C3O)c(O)c12 [Compound 8, 5,7,3′-trihydroxyflavone-6-C-glucoside-8-C-β-D-glucoside]",176.71 ± 0.97 µM Teq,369.24 ± 3.05 µM Teq,5.16 ± 0.96 mM Fe2+ equivalents,27.15 ± 1.32 µM Teq,53.4 ± 0.88 µM,
scleranthoside C [Compound 3],7.11 ± 0.59 µM Teq,198.57 ± 2.46 µM Teq,,67.30 µM Teq and 67.30 ± 1.30 µM Teq,,
"O=c1cc(-c2ccc(O)c(O)c2)oc2c(C3OC(CO)C(O)C(O)C3O)c(O)c(C3OCC(O)C(O)C3O)c(O)c12 [Compound 7, 5,7,3′,4′-tetrahydroxyflavone-6-C-xyloside-8-C-β-D-glucoside]",409.16 ± 2.03 µM Teq,796.61 ± 1.23 µM Teq,,116.16 µM Teq and 116.16 ± 0.76 µM Teq,73.9 ± 1.03 µM,
"COc1ccc(C(C)=O)c(O[C@@H]2O[C@H](CO[C@@H]3OC[C@](O)(CO)[C@H]3O)[C@@H](O)[C@H](O)[C@H]2O)c1 [Compound 5, Apiopaeonoside]",61.96 ± 1.90 µM Teq,444.23 ± 0.47 µM Teq,,48.46 ± 1.75 µM Teq,,
scleranthoside B [Compound 2],198.43 ± 2.40 µM Teq,188.57 ± 1.86 µM Teq,5.68 ± 0.68 mM Fe2+ equivalents,114.56 ± 2.04 µM Teq,,
scleranthoside D [Compound 4],9.64 ± 0.82 µM Teq,302.05 ± 2.42 µM Teq,2.65 ± 0.47 mM Fe2+ equivalents,44.22 ± 1.35 µM Teq,,
scleranthoside A [Compound 1],405.15 ± 3.12 µM Teq,765.16 ± 2.83 µM Teq,,581.32 µM Teq and 581.32 ± 3.61 µM Teq,,
